Results from patent publication US9326506B2, “Preparation method, agricultural composition and applications of natural brassinolide analogs” (CHENGDU NEWSUN CROPSCIENCE CO., LTD, priority 2012, dated 2016).

System: rice
Assay: Low temperature assay on rice seedlings
Type: in vivo
Summary of the method: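 Nine-day-old etiolated rice seedlings (grown on water at 30 °C±2 °C, dark) immersed in brassinolide analogues at 1–0.0001 mg/L or pure water, held at 1–5 °C for 24 hr. Plant height, leaf area, root weight read at 3, 6, 9, 12 days; leaf and tiller number at 12 days.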

SMILES: CC(C)[C@H](C)[C@@H](O)[C@H](O)[C@@H](C)[C@H]1CCC2C3COC(=O)C4C[C@H](O)[C@H](O)C[C@]4(C)C3CC[C@@]21C (some centres unmarked) [BR1]
- Height (0.01 mg/l, 3 °C, 9 days): 7.4 cm
- Weight of root (0.01 mg/l, 3 °C, 9 days): 2.9 g
- Area of leaf (0.01 mg/l, 3 °C, 12 days): 13.2 cm^2
- Height (0.01 mg/l, 3 °C, 12 days): 7.6 cm
- Number of leaf (0.01 mg/l, 3 °C, 12 days): 3
- Number of tiller (0.01 mg/l, 3 °C, 12 days): 2
- Weight of root (0.01 mg/l, 3 °C, 12 days): 2.9 g
- Area of leaf (0.01 mg/l, 4 °C, 3 days): 10.8 cm^2
- Height (0.01 mg/l, 4 °C, 3 days): 7.1 cm
- Weight of root (0.01 mg/l, 4 °C, 3 days): 2.5 g
- Area of leaf (0.01 mg/l, 4 °C, 6 days): 12.4 cm^2
- Height (0.01 mg/l, 4 °C, 6 days): 7.3 cm
- Weight of root (0.01 mg/l, 4 °C, 6 days): 2.6 g
- Area of leaf (0.01 mg/l, 4 °C, 9 days): 13.4 cm^2
- Height (0.01 mg/l, 4 °C, 9 days): 7.5 cm
- Weight of root (0.01 mg/l, 4 °C, 9 days): 2.9 g
- Area of leaf (0.01 mg/l, 4 °C, 12 days): 13.7 cm^2
- Height (0.01 mg/l, 4 °C, 12 days): 7.8 cm
- Number of leaf (0.01 mg/l, 4 °C, 12 days): 3
- Number of tiller (0.01 mg/l, 4 °C, 12 days): 2
- Weight of root (0.01 mg/l, 4 °C, 12 days): 3.0 g
- Area of leaf (0.01 mg/l, 5 °C, 3 days): 10.9 cm^2
- Height (0.01 mg/l, 5 °C, 3 days): 7.7 cm
- Weight of root (0.01 mg/l, 5 °C, 3 days): 2.8 g
- Area of leaf (0.01 mg/l, 5 °C, 6 days): 13.9 cm^2
- Height (0.01 mg/l, 5 °C, 6 days): 7.8 cm
- Weight of root (0.01 mg/l, 5 °C, 6 days): 3.0 g
- Area of leaf (0.01 mg/l, 5 °C, 9 days): 17.4 cm^2
- Height (0.01 mg/l, 5 °C, 9 days): 8.2 cm
- Weight of root (0.01 mg/l, 5 °C, 9 days): 3.4 g
- Area of leaf (0.01 mg/l, 5 °C, 12 days): 18 cm^2
- Height (0.01 mg/l, 5 °C, 12 days): 8.5 cm
- Number of leaf (0.01 mg/l, 5 °C, 12 days): 4
- Number of tiller (0.01 mg/l, 5 °C, 12 days): 3
- Weight of root (0.01 mg/l, 5 °C, 12 days): 3.9 g
- Area of leaf (0.1 mg/l, 1 °C, 3 days): 10.1 cm^2
- Height (0.1 mg/l, 1 °C, 3 days): 7.0 cm
- Weight of root (0.1 mg/l, 1 °C, 3 days): 2.8 g
- Area of leaf (0.1 mg/l, 1 °C, 6 days): 11.9 cm^2
- Height (0.1 mg/l, 1 °C, 6 days): 7.2 cm
- Weight of root (0.1 mg/l, 1 °C, 6 days): 3.0 g
- Area of leaf (0.1 mg/l, 1 °C, 9 days): 12.9 cm^2
- Height (0.1 mg/l, 1 °C, 9 days): 7.3 cm
- Weight of root (0.1 mg/l, 1 °C, 9 days): 3.4 g
- Area of leaf (0.1 mg/l, 1 °C, 12 days): 13.4 cm^2
- Height (0.1 mg/l, 1 °C, 12 days): 7.5 cm
- Number of leaf (0.1 mg/l, 1 °C, 12 days): 3
- Number of tiller (0.1 mg/l, 1 °C, 12 days): 3
- Weight of root (0.1 mg/l, 1 °C, 12 days): 3.6 g
- Area of leaf (0.1 mg/l, 2 °C, 3 days): 10.4 cm^2
- Height (0.1 mg/l, 2 °C, 3 days): 7.1 cm
- Weight of root (0.1 mg/l, 2 °C, 3 days): 2.9 g
- Area of leaf (0.1 mg/l, 2 °C, 6 days): 11.8 cm^2
- Height (0.1 mg/l, 2 °C, 6 days): 7.2 cm
- Weight of root (0.1 mg/l, 2 °C, 6 days): 3.0 g
- Area of leaf (0.1 mg/l, 2 °C, 9 days): 12.8 cm^2
- Height (0.1 mg/l, 2 °C, 9 days): 7.3 cm
- Weight of root (0.1 mg/l, 2 °C, 9 days): 3.1 g
- Area of leaf (0.1 mg/l, 2 °C, 12 days): 13.6 cm^2
- Height (0.1 mg/l, 2 °C, 12 days): 7.4 cm
- Number of leaf (0.1 mg/l, 2 °C, 12 days): 3
- Number of tiller (0.1 mg/l, 2 °C, 12 days): 3
- Weight of root (0.1 mg/l, 2 °C, 12 days): 3.2 g
- Area of leaf (0.1 mg/l, 3 °C, 3 days): 10.5 cm^2
- Height (0.1 mg/l, 3 °C, 3 days): 7.2 cm
- Weight of root (0.1 mg/l, 3 °C, 3 days): 2.5 g
- Area of leaf (0.1 mg/l, 3 °C, 6 days): 12 cm^2
- Height (0.1 mg/l, 3 °C, 6 days): 7.3 cm
- Weight of root (0.1 mg/l, 3 °C, 6 days): 2.6 g
- Area of leaf (0.1 mg/l, 3 °C, 9 days): 12.8 cm^2
- Height (0.1 mg/l, 3 °C, 9 days): 7.4 cm
- Weight of root (0.1 mg/l, 3 °C, 9 days): 2.9 g
- Area of leaf (0.1 mg/l, 3 °C, 12 days): 13.4 cm^2
- Height (0.1 mg/l, 3 °C, 12 days): 7.6 cm
- Number of leaf (0.1 mg/l, 3 °C, 12 days): 3
- Number of tiller (0.1 mg/l, 3 °C, 12 days): 2
- Weight of root (0.1 mg/l, 3 °C, 12 days): 2.9 g
- Area of leaf (0.1 mg/l, 4 °C, 3 days): 10.8 cm^2
- Height (0.1 mg/l, 4 °C, 3 days): 7.1 cm
- Weight of root (0.1 mg/l, 4 °C, 3 days): 2.5 g
- Area of leaf (0.1 mg/l, 4 °C, 6 days): 12.5 cm^2
- Height (0.1 mg/l, 4 °C, 6 days): 7.4 cm
- Weight of root (0.1 mg/l, 4 °C, 6 days): 2.7 g
- Area of leaf (0.1 mg/l, 4 °C, 9 days): 13.5 cm^2
- Height (0.1 mg/l, 4 °C, 9 days): 7.5 cm
- Weight of root (0.1 mg/l, 4 °C, 9 days): 2.9 g
- Area of leaf (0.1 mg/l, 4 °C, 12 days): 13.8 cm^2
- Height (0.1 mg/l, 4 °C, 12 days): 7.7 cm
- Number of leaf (0.1 mg/l, 4 °C, 12 days): 3
- Number of tiller (0.1 mg/l, 4 °C, 12 days): 2
- Weight of root (0.1 mg/l, 4 °C, 12 days): 3.1 g
- Area of leaf (0.1 mg/l, 5 °C, 3 days): 11.1 cm^2
- Height (0.1 mg/l, 5 °C, 3 days): 7.7 cm
- Weight of root (0.1 mg/l, 5 °C, 3 days): 2.9 g
- Area of leaf (0.1 mg/l, 5 °C, 6 days): 13.9 cm^2
- Height (0.1 mg/l, 5 °C, 6 days): 7.9 cm
- Weight of root (0.1 mg/l, 5 °C, 6 days): 3.2 g
- Area of leaf (0.1 mg/l, 5 °C, 9 days): 17.8 cm^2
- Height (0.1 mg/l, 5 °C, 9 days): 8.4 cm
- Weight of root (0.1 mg/l, 5 °C, 9 days): 3.5 g
- Area of leaf (0.1 mg/l, 5 °C, 12 days): 19 cm^2
- Height (0.1 mg/l, 5 °C, 12 days): 8.7 cm
- Number of leaf (0.1 mg/l, 5 °C, 12 days): 3
- Number of tiller (0.1 mg/l, 5 °C, 12 days): 2
- Weight of root (0.1 mg/l, 5 °C, 12 days): 4.1 g
- Area of leaf (1 mg/l, 1 °C, 3 days): 10 cm^2
- Height (1 mg/l, 1 °C, 3 days): 7.1 cm
- Weight of root (1 mg/l, 1 °C, 3 days): 2.8 g
- Area of leaf (1 mg/l, 1 °C, 6 days): 11.2 cm^2
- Height (1 mg/l, 1 °C, 6 days): 7.2 cm
- Weight of root (1 mg/l, 1 °C, 6 days): 3.1 g
- Area of leaf (1 mg/l, 1 °C, 9 days): 12.4 cm^2
- Height (1 mg/l, 1 °C, 9 days): 7.3 cm
- Weight of root (1 mg/l, 1 °C, 9 days): 3.4 g
- Area of leaf (1 mg/l, 1 °C, 12 days): 13 cm^2
- Height (1 mg/l, 1 °C, 12 days): 7.4 cm
- Number of leaf (1 mg/l, 1 °C, 12 days): 3
- Number of tiller (1 mg/l, 1 °C, 12 days): 3
- Weight of root (1 mg/l, 1 °C, 12 days): 3.9 g
- Area of leaf (1 mg/l, 2 °C, 3 days): 10.2 cm^2
- Height (1 mg/l, 2 °C, 3 days): 7.1 cm
- Weight of root (1 mg/l, 2 °C, 3 days): 2.8 g
- Area of leaf (1 mg/l, 2 °C, 6 days): 11.7 cm^2
- Height (1 mg/l, 2 °C, 6 days): 7.2 cm
- Weight of root (1 mg/l, 2 °C, 6 days): 3.0 g
- Area of leaf (1 mg/l, 2 °C, 9 days): 12.6 cm^2
- Height (1 mg/l, 2 °C, 9 days): 7.3 cm
- Weight of root (1 mg/l, 2 °C, 9 days): 3.2 g
- Area of leaf (1 mg/l, 2 °C, 12 days): 13 cm^2
- Height (1 mg/l, 2 °C, 12 days): 7.5 cm
- Number of leaf (1 mg/l, 2 °C, 12 days): 3
- Number of tiller (1 mg/l, 2 °C, 12 days): 3
- Weight of root (1 mg/l, 2 °C, 12 days): 3.9 g
- Area of leaf (1 mg/l, 3 °C, 3 days): 10.4 cm^2
- Height (1 mg/l, 3 °C, 3 days): 7.1 cm
- Weight of root (1 mg/l, 3 °C, 3 days): 2.5 g
- Area of leaf (1 mg/l, 3 °C, 6 days): 12 cm^2
- Height (1 mg/l, 3 °C, 6 days): 7.2 cm
- Weight of root (1 mg/l, 3 °C, 6 days): 2.6 g
- Area of leaf (1 mg/l, 3 °C, 9 days): 12.6 cm^2
- Height (1 mg/l, 3 °C, 9 days): 7.5 cm
- Weight of root (1 mg/l, 3 °C, 9 days): 2.9 g
- Area of leaf (1 mg/l, 3 °C, 12 days): 13.2 cm^2
- Height (1 mg/l, 3 °C, 12 days): 7.6 cm
- Number of leaf (1 mg/l, 3 °C, 12 days): 3
- Number of tiller (1 mg/l, 3 °C, 12 days): 2
- Weight of root (1 mg/l, 3 °C, 12 days): 2.9 g
- Area of leaf (1 mg/l, 4 °C, 3 days): 10.9 cm^2
- Height (1 mg/l, 4 °C, 3 days): 7.1 cm
- Weight of root (1 mg/l, 4 °C, 3 days): 2.5 g
- Area of leaf (1 mg/l, 4 °C, 6 days): 12.6 cm^2
- Height (1 mg/l, 4 °C, 6 days): 7.5 cm
- Weight of root (1 mg/l, 4 °C, 6 days): 2.7 g
- Area of leaf (1 mg/l, 4 °C, 9 days): 13.7 cm^2
- Height (1 mg/l, 4 °C, 9 days): 7.6 cm
- Weight of root (1 mg/l, 4 °C, 9 days): 3.0 g
- Area of leaf (1 mg/l, 4 °C, 12 days): 14 cm^2
- Height (1 mg/l, 4 °C, 12 days): 7.7 cm
- Number of leaf (1 mg/l, 4 °C, 12 days): 3
- Number of tiller (1 mg/l, 4 °C, 12 days): 2
- Weight of root (1 mg/l, 4 °C, 12 days): 3.2 g
- Area of leaf (1 mg/l, 5 °C, 3 days): 11.1 cm^2
- Height (1 mg/l, 5 °C, 3 days): 7.7 cm
- Weight of root (1 mg/l, 5 °C, 3 days): 2.9 g
- Area of leaf (1 mg/l, 5 °C, 6 days): 13.6 cm^2
- Height (1 mg/l, 5 °C, 6 days): 8.0 cm
- Weight of root (1 mg/l, 5 °C, 6 days): 3.5 g
- Area of leaf (1 mg/l, 5 °C, 9 days): 18.4 cm^2
- Height (1 mg/l, 5 °C, 9 days): 8.6 cm
- Weight of root (1 mg/l, 5 °C, 9 days): 3.7 g
- Area of leaf (1 mg/l, 5 °C, 12 days): 20 cm^2
- Height (1 mg/l, 5 °C, 12 days): 8.9 cm
- Number of leaf (1 mg/l, 5 °C, 12 days): 3
- Number of tiller (1 mg/l, 5 °C, 12 days): 2
- Weight of root (1 mg/l, 5 °C, 12 days): 4.5 g
- Effects on resistance to low temperature compared among analogues (in vivo): more than those of BR2, BR3 and BR4
